“And” between values parts separate entries of the source, which are not always exact repeats. Equal values may be shown once. “Also recorded” adds a separate entry of the source. Positions of bridges follow the written chain, without caps; N, C: chain ends. Residues, ends and D or L forms follow the SMILES beside them.
Columns and labels:
[1] = target: T1, type 1 ryanodine receptor (RyR1) (Homo sapiens, UniProt P21817); assay type: biochemical; parameters: sMCa-modified channels blocked by ruthenium red: dose or concentration left out as unconfirmed; conditions: for reversibility of the induced subconductance states on perfusion of the cis chamber: channel modified by sMCa and ryanodine, trace 5
T1 construct: from tissue; host or cells: sarcoplasmic reticulum (SR) vesicles
Procedure: Single-channel recording: Cs^+ current through single RyR1 channels incorporated into planar lipid bilayers (BLM) was measured in an asymmetric CsCl (10:1 cis:trans) solution. The BLM was formed from a mixture of phosphatidylethanolamine and phosphatidylcholine (5:2, w/w) at 30-50 mg/ml in decane, across a […] aperture in a 1.0 ml polystyrene cup. SR vesicles were added to the cis side of chamber at a final concentration of 0.1-10 mg/ml. The cis solution contained 500 mM CsCl, ˜7 mM CaCl2, 20 mM HEPES, pH 7.4, and the trans solution contained 50 mM CsCl, 7 mM free Ca^2+, 20 mM HEPES, pH 7.4. The monovalent cation Cs^+ was used as permeant ion instead of divalent cations (such as Ca^2+) owing to its better permeability through RyR1. After a single fusion event, sarcoplasmic reticulum (SR) vesicles in cis chamber were quickly removed by perfusion with 9× volume of is solution. Single-channel current was measured under voltage clamp using a Dagan 3900 amplifier (Dagan Instruments, Minneapolis, Minn.). Holding potentials were with respect to the trans (ground) chamber, and positive current was defined as current flowing from cis to trans. Current signals were captured at 10 kHz and filtered at 1 kHz using a four pole Bessel filter. Data was digitized with a Digidata 1200 interface (Axon Instruments, Burlingame, Calif.) and stored on computer for subsequent analysis. Unless otherwise stated, test chemicals were sequentially added to the cis solution after an initial period of recording control channel behaviour. Single channel activity was analyzed with pCLAMP 7.0 (Axon Instruments). Current levels were analyzed by mean-variance analysis and peaks in the all-points amplitude histogram were fitted with Gaussian functions. The all-points amplitude histograms were constructed from selected segments-of data 20-150 sec in length to quantify the incidence of full and subconductance states.
To test this hypothesis, we performed electrophysiological experiments on single RyR1 channels incorporated into planar lipid bilayers.

mice = test: Lethality after intracerebroventricular injection in mice
[2] = target: T1, type 1 ryanodine receptor (RyR1); conditions: comparison with sMCa; cited from earlier work
[3] = sMCa and ryanodine (1 μM) both present

T1 sequence (P21817 whole entry, species assumed, the tested form may be a part): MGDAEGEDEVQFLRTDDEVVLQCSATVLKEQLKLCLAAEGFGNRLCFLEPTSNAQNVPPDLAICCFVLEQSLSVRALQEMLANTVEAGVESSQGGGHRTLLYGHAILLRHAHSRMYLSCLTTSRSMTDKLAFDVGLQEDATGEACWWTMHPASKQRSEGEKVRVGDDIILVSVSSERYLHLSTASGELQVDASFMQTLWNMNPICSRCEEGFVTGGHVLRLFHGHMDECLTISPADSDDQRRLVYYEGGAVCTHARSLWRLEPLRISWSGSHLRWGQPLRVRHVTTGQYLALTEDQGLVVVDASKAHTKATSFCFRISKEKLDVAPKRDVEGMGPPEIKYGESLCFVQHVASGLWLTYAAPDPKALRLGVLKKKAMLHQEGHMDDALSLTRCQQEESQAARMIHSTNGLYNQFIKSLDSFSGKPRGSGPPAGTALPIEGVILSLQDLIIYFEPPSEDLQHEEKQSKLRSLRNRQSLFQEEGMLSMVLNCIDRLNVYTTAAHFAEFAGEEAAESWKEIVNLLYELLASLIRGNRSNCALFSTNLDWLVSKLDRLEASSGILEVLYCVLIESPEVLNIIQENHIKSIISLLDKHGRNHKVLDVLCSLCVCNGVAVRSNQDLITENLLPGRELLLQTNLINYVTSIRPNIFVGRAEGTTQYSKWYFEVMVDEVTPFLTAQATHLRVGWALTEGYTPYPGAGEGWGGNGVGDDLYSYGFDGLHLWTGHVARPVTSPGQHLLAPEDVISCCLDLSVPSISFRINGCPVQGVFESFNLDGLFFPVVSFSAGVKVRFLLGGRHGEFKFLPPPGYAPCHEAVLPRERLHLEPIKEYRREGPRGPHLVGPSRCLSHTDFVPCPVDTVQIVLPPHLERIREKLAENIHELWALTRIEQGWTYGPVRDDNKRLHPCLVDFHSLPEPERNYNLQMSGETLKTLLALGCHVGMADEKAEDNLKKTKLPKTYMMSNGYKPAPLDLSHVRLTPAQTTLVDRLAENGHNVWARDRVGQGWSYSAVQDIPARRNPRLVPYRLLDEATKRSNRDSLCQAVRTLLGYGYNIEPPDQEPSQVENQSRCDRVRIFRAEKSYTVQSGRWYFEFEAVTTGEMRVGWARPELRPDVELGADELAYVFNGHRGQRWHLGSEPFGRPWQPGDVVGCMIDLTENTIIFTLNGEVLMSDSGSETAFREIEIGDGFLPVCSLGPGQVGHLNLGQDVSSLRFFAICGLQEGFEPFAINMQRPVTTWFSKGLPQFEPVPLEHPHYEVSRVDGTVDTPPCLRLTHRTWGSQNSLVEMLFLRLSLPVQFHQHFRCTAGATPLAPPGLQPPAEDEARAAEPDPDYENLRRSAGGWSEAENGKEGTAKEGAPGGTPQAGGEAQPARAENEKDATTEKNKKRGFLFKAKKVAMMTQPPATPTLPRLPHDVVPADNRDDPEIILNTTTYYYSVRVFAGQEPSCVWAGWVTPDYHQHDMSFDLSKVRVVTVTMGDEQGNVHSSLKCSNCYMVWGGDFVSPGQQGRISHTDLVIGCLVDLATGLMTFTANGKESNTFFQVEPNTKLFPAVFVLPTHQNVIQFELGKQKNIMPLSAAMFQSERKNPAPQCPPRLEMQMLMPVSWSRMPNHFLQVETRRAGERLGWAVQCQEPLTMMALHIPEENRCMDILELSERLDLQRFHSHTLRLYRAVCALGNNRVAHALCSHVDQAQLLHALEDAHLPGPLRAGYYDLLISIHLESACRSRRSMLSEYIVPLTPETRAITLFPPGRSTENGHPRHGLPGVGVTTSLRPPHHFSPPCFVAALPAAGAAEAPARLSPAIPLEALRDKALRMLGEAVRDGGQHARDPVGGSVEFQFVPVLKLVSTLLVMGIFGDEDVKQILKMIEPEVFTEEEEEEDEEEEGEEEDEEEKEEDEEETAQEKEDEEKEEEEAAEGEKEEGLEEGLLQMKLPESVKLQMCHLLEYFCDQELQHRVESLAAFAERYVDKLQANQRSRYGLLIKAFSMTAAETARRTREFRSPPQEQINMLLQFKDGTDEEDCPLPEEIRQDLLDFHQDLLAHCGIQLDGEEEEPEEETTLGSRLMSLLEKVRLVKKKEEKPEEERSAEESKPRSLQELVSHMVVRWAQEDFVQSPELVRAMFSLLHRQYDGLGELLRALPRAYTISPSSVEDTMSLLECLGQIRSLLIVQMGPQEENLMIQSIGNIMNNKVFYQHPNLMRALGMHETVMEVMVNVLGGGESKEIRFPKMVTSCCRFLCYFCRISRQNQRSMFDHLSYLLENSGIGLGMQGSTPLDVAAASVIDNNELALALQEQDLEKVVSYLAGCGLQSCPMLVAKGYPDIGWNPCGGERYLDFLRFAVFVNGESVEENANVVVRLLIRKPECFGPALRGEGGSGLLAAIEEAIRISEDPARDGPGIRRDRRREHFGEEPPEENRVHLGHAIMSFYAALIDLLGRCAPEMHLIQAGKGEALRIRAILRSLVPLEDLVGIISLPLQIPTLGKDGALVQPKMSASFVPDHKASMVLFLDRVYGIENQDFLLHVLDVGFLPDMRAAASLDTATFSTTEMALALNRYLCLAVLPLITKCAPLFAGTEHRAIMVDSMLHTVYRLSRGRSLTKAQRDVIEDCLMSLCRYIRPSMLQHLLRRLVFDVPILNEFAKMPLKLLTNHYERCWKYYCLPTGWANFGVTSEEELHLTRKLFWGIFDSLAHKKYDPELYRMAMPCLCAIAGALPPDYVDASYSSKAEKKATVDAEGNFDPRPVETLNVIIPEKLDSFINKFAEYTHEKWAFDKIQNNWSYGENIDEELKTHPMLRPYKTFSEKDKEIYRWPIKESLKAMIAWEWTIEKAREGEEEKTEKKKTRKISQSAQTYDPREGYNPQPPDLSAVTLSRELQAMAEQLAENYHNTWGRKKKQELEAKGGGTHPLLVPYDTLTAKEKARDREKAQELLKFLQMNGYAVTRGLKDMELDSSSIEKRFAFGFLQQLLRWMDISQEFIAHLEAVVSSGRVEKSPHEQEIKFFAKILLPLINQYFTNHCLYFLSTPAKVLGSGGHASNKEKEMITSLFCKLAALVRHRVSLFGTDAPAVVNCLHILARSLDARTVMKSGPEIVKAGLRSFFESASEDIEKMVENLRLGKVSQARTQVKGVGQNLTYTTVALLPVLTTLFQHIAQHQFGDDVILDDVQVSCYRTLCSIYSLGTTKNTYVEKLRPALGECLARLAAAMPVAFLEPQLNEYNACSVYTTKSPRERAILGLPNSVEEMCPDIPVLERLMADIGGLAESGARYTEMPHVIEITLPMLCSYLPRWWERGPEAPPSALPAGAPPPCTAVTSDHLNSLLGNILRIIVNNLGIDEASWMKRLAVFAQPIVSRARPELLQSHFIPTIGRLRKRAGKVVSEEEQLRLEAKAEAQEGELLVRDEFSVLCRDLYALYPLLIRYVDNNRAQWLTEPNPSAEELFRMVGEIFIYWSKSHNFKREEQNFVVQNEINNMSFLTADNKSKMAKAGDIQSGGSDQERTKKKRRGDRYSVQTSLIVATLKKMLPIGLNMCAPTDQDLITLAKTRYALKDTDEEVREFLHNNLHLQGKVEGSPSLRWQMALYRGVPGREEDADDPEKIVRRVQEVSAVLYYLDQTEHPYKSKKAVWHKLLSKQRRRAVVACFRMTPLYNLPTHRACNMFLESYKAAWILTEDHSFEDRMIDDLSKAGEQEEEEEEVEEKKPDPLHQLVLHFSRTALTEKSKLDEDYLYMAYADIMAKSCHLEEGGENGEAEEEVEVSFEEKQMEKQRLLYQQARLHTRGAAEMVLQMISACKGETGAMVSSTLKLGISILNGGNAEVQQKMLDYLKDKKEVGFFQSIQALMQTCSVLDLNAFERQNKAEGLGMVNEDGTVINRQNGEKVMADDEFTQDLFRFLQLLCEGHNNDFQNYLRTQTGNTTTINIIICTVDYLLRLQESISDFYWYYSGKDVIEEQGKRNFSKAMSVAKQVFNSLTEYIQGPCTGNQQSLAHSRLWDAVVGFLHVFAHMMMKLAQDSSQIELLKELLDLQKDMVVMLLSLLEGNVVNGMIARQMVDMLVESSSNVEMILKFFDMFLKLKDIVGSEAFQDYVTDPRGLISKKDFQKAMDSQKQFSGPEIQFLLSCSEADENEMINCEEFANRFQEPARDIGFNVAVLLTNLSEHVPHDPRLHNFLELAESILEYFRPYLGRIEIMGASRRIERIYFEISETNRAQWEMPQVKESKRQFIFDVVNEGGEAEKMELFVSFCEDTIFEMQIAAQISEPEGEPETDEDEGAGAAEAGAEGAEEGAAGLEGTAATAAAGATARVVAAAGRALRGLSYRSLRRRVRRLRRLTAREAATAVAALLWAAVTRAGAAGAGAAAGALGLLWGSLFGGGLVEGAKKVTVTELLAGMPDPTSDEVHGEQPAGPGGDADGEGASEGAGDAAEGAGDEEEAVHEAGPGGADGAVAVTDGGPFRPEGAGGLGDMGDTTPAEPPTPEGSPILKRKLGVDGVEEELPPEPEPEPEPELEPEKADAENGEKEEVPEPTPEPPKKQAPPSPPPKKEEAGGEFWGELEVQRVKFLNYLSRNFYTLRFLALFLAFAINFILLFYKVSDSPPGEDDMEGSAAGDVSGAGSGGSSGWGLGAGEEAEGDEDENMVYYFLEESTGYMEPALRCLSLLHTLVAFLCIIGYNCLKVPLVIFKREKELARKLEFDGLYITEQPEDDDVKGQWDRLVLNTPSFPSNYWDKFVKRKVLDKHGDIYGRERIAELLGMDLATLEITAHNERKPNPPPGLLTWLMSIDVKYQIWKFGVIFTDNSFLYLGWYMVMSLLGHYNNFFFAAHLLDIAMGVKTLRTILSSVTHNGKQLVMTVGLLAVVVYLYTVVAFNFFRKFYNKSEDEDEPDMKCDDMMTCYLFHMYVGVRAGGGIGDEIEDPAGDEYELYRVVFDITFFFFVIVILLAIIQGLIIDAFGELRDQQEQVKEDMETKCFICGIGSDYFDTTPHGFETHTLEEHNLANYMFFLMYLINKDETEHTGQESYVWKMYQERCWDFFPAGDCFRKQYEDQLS

## N.N.N.N.N.N.N.N.N.N.N.N.N.N.[Cl-].[Cl-].[Cl-].[Cl-].[Cl-].[Cl-].[O-2].[O-2].[Ru+3].[Ru+3].[Ru+4] [ruthenium red, reference compound]
[1]
  block of the ryanodine/sMCa modified channel: completely blocked
[1]; ruthenium red
  sMCa-modified channels blocked by ruthenium red: Five out of six channels

## CC[C@H](C)[C@@H]1NC(=O)[C@H](CC(N)=O)NC(=O)[C@H]([C@@H](C)O)NC(=O)CNC(=O)[C@H](CCCNC(=N)N)NC(=O)[C@H](CCCNC(=N)N)NC(=O)[C@H](CCCCN)NC(=O)[C@@H]2CSSC[C@@H]3NC(=O)[C@H](CC(C)C)NC(=O)[C@H](CCCCN)NC(=O)[C@H](CC(C)C)NC(=O)[C@H](Cc4c[nH]cn4)NC(=O)[C@@H]4CCCN4C(=O)[C@H](CC(C)C)NC(=O)[C@@H](NC(=O)[C@H](CC(=O)O)NC(=O)CN)CSSC[C@H](NC(=O)[C@H](CSSC[C@@H](C(=O)N[C@@H](CCCNC(=N)N)C(=O)O)NC(=O)[C@H](CCCNC(=N)N)NC(=O)[C@H](CCCCN)NC(=O)[C@H](CCC(=O)O)NC1=O)NC(=O)[C@H](CC(=O)O)NC(=O)[C@H](CCCCN)NC(=O)[C@H](CC(N)=O)NC(=O)[C@H](CCC(=O)O)NC(=O)[C@H](CCCCN)NC3=O)C(=O)N[C@@H](CO)C(=O)N[C@@H](CCCCN)C(=O)N[C@@H](CCCCN)C(=O)N2 [sMCa, maurocalcine] (H-GDCLPHLKLCKENKDCCSKKCKRRGTNIEKRCR-OH; disulfide 3-17, 10-21, 16-32)
[1]
  reversibility of the induced subconductance states on perfusion of the cis chamber: reversed the sMCa-induced quarter states
[1]; nanomolar concentration (5 nM to 1 μM), cis chamber
  effect on RyR1 channel gating, toxin applied on the cis (cytoplasmic) side: dramatically modified the channel gating behavior; also recorded: potently and reversibly modifies channel gating behaviour; also recorded: potently activates RyR1 channels
[1]; sMCa alone, cis, to a smaller extent
  minor subconductance induced, fraction of the full conductance level: one-quarter
[1]; sMCa alone, cis, traces 1-3
  predominant subconductance induced, fraction of the characteristic full conductance: one-half
[1]; [3]
  half subconductance, % of the characteristic control conductance level: ~50.5% and 51%
  quarter subconductance, % of the characteristic control conductance level: ~29.3% and 29%
[1]; trans side
  effect on RyR1, toxin applied on the trans (luminal) side: No effect
mice
  LD50: 20 μg per mouse

## Imperatoxin A (GDCLPHLKRCKADNDCCGKKCKRRGTNAEKRCR; UniProt P59868 1-33, looked up) [IpTx A]
[2]
  conductance state of RyR1 favoured: ⅓

## ryanodine [reference compound]
[1]
  reversibility of the induced subconductance states on perfusion of the cis chamber: ryanodine-mediated half-states persisted
[1]; ryanodine 1 μM
  sMCa-modified channels subsequently modified by ryanodine: Four out of five channels

— patent US7319089B2, “Maurocalcine, analogues thereof and their therapeutical uses” (priority 2000, dated 2008)
